{"source": "patent US20100087383A1", "about": "“INT[…] INHIBITOR AND USE THEREOF” (National University Corporation Nagoya University, priority 2006, published 2010)", "key": {"[1]": {"test_system": "Alzheimer's disease mouse model subjected to intraventricular injection of Aβ", "test": "Novel object recognition test, oral administration, Alzheimer's disease mouse model subjected to intraventricular injection of Aβ25-35", "assay_type": "in vivo", "details": "day 5 after Aβ25-35, ICR mice, FIG. 2", "method": "(§1) An Alzheimer's disease mouse model was produced by injecting Aβ25-35 (the aggregation of which had been accelerated by 4 days of incubation at 37° C.) to mouse cerebral ventricle, following which it was used for the experimental system. ICR mice (body weight of 20-22 g (7 weeks old), purchased from Japan SLC Inc. (Shizuoka, Japan)) were divided into 4 groups (n=15). A physiological saline solution that is a solvent for Leu-Ile, Leu-Ile (1.5 μmol/Kg), or Leu-Ile (15 μmol/Kg) was administered to Alzheimer's disease mouse model groups. Then the groups were used for the experiment.\nMoreover, an Leu-Ile 7.5 μmol/Kg administrated group and an Leu-Ile 75 μmol/Kg administrated group were subjected to oral administration of Leu-Ile (7.5 μmol/Kg) and Leu-Ile (75 μmol/Kg), respectively, immediately after administration of Aβ25-35. A novel object recognition test (Ennaceur et al., Behav Brain Res 80 9-25, 1996) was conducted for all groups 3 to 5 days after intraventricular administration of Aβ25-35 or a physiological saline solution. The test results on day 5 after administration of Aβ25-35 or a physiological saline solution were compared with the other test results on […] after administration (FIG. 2)."}, "[2]": {"test_system": "Alzheimer's disease mouse model subjected to intraventricular injection of Aβ", "test": "Novel object recognition test, intraperitoneal administration, Alzheimer's disease mouse model subjected to intraventricular injection of Aβ25-35", "assay_type": "in vivo", "details": "day 5 after Aβ25-35, ICR mice, FIG. 3", "method": "as §1, with “cerebral ventricle and then” for “cerebral ventricle, following which it was”, “20-22 g,” for “20-22 g (7 weeks old),”, “into 5” for “into 4”, “solution was administered instead of Aβ25-35 to the cerebral ventricle of a control group. A physiological saline solution;” for “solution”\nThe Alzheimer's disease model control group, the Leu-Ile […] administrated group, the Leu-Ile 15 μmol/Kg administrated group, and an Leu-Ile 75 μmol/Kg administrated group were separately subjected to the experiment.\nSpecifically, the Leu-Ile 7.5 μmol/Kg administrated group, the Leu-Ile 15 μmol/Kg administrated group, and the Leu-Ile 75 μmol/Kg administrated group were subjected to intraperitoneal administration of Leu-Ile (7.5 μmol/Kg), Leu-Ile (15 μmol/Kg), and Leu-Ile (75 μmol/Kg), respectively, immediately after administration of Aβ25-35.\n(§2) A novel object recognition test was conducted for each of the above groups 3 to 5 days after intraventricular administration of Aβ25-35 or a physiological saline solution. The test results on day 5 after administration of Aβ25-35 or a physiological saline solution were compared with the other test results on […] after administration (FIG. 3). Furthermore, Leu-Ile (15 μmol/Kg) was intraperitoneally administered to untreated mice and then the mice were subjected to a novel object recognition test similar to that conducted for the above test groups."}, "untreated mice": {"test_system": "untreated mice", "test": "Novel object recognition test in untreated mice", "assay_type": "in vivo, mouse", "details": "Leu-Ile 15 μmol/Kg intraperitoneal; untreated mice (no Aβ25-35)", "method": "as §2"}}, "data": [{"substance": "Leu-Ile", "values": [{"measurement": "recognition indices (novel object recognition test)", "setting": "[1]; Leu-Ile 7.5 μmol/Kg oral", "result": "decreased recognition indices were not confirmed"}, {"measurement": "recognition indices (novel object recognition test)", "setting": "[1]; Leu-Ile 75 μmol/Kg oral", "result": "decreased recognition indices were not confirmed"}, {"measurement": "recognition indices (novel object recognition test)", "setting": "[2]; Leu-Ile 1.5 μmol/Kg intraperitoneal", "result": "decreased recognition indices were not observed"}, {"measurement": "recognition indices (novel object recognition test)", "setting": "[2]; Leu-Ile 15 μmol/Kg intraperitoneal", "result": "decreased recognition indices were not observed"}, {"measurement": "recognition indices (novel object recognition test)", "setting": "[2]; Leu-Ile 75 μmol/Kg intraperitoneal", "result": "decreased recognition indices were not observed"}, {"measurement": "effects of improving memory (novel object recognition test)", "setting": "untreated mice", "result": "effects of improving memory were not observed"}]}]}
